PMC8373196, “In silico, in vitro, and ex vivo studies of the toxicological and pharmacological properties of the flavonoid 5,7-dihydroxy-3,8,4'-trimethoxy” (Brazilian Journal of Medical and Biological Research, 2021)
Read-outs that look alike come from different tables or passages of the source.

Experiments:
oral mucosa cells = experiment: Genotoxic effect on oral mucosa cells (ex vivo); format: cell-based, human
Text: (§1) The in vitro and ex vivo assays followed the guidelines provided in the Ethics Code of the World Medical Association and were approved by the Ethics Committee of the Patos University Center (protocol number: 3.621.284). For cell pellet preparation, blood samples (A, B, and O), and buccal mucosa were used from healthy young adults of both sexes between 18 and 40 years of age.
For evaluation of the genotoxic effect on oral mucosa cells, cell collection from the oral mucosa of the donors was performed with a cytobrush (smear brush collector) in the cheek area, and the material obtained was placed in 5 mL of 0.9% NaCl ([7]). Control samples were divided into two groups: cells treated with 0.0005% hydrogen peroxide (positive control) and cells not exposed to treatments (negative control). The cells were washed twice in saline solution and centrifuged for 10 min (900 g, 28°C). The cell pellets were re-suspended and kept in 5 mL of saline solution. After the third wash, they were exposed (ex vivo) to Pg-1 (50, 100, 500, and 1000 µg/mL) for 30 min; each test was performed in triplicate. The material was centrifuged for 5 min (900 g, 28°C) and the supernatant was removed before smear preparation. The cells were homogenized in a vortex and dried on the slides at room temperature for 15 min. Finally, they were fixed with a methanol:acetic acid mixture (3:1) for 15 min ([8]), and stained with 2% Giemsa. The cells were observed under an optical microscope and about 1000 cells were analyzed per slide. The data are reported as percentages representing the arithmetic average of three measurements ([9]). The cell toxicity was assessed by the presence of cellular indicators such as micronucleus, bi-nucleation, karyolysis, karyorrhexis, and macronucleus ([10]).

[1] = Hemolytic activity on human erythrocytes (in vitro); format: cell-based; settings: both sexes; for hemolysis at 1 h, 1000 µg/mL: 0.5% red blood cell suspension, read-out: hemolysis rate
Text: as §1
For hemolytic activity, red blood cell (RBC) samples were mixed with 0.9% NaCl in a proportion of 1:30 and centrifuged for 5 min (1400 g, 28°C) to obtain a white blood cell and platelet-free 0.5% suspension. The tested substance (Pg-1) was added to 2 mL RBC suspensions at the concentrations of 50, 100, 500, and 1000 µg/mL. The control samples were divided into two groups: negative control - RBC suspension (0% hemolysis) and a positive control - RBC suspension with 1% Triton X-100 (100% hemolysis). The material was incubated for 1 h at 22±2°C. Afterwards, the samples were centrifuged for 5 min (1400 g, 28°C) and hemolysis was quantified by spectrophotometry at 540 nm wavelength ([6]).

Q: What does the source list for COc1ccc(-c2oc3c(OC)c(O)cc(O)c3c(=O)c2OC)cc1 [Pg-1, 5,7-dihydroxy-3,8,4'-trimethoxy]?
A: Binucleation (%) (oral mucosa cells; 50 µg/mL, 30 min): 3.00±0.33 %; Karyolysis (%) (oral mucosa cells; 50 µg/mL, 30 min): 2.88±0.11 %; Karyorrhexis (%) (oral mucosa cells; 50 µg/mL, 30 min): 1.77±0.58 %; Macronucleus (%) (oral mucosa cells; 50 µg/mL, 30 min): 6.55±0.58%; Micronucleus (%) (oral mucosa cells; 50 µg/mL, 30 min): 0.55±0.11 %; Normal (%) (oral mucosa cells; 50 µg/mL, 30 min): 85.22±0.72 %; Binucleation (%) (oral mucosa cells; 100 µg/mL, 30 min): 1.77±0.58 %; Karyolysis (%) (oral mucosa cells; 100 µg/mL, 30 min): 2.44±0.44 %; Karyorrhexis (%) (oral mucosa cells; 100 µg/mL, 30 min): 7.33±0.19%; Macronucleus (%) (oral mucosa cells; 100 µg/mL, 30 min): 3.55±0.94 %; Micronucleus (%) (oral mucosa cells; 100 µg/mL, 30 min): 0.22±0.11 %; Normal (%) (oral mucosa cells; 100 µg/mL, 30 min): 84.67±1.07 %; Binucleation (%) (oral mucosa cells; 500 µg/mL, 30 min): 2.33±0.50 %; Karyolysis (%) (oral mucosa cells; 500 µg/mL, 30 min): 2.55±0.80 %; Karyorrhexis (%) (oral mucosa cells; 500 µg/mL, 30 min): 3.66±1.01 %; Macronucleus (%) (oral mucosa cells; 500 µg/mL, 30 min): 5.33±0.33%; Micronucleus (%) (oral mucosa cells; 500 µg/mL, 30 min): 0.22±0.11 %; Normal (%) (oral mucosa cells; 500 µg/mL, 30 min): 85.89±1.78 %; Binucleation (%) (oral mucosa cells; 1000 µg/mL, 30 min): 1.55±0.58 %; Karyolysis (%) (oral mucosa cells; 1000 µg/mL, 30 min): 1.44±0.22 %; Karyorrhexis (%) (oral mucosa cells; 1000 µg/mL, 30 min): 1.44±0.11 %; Macronucleus (%) (oral mucosa cells; 1000 µg/mL, 30 min): 3.66±0.19 %; Micronucleus (%) (oral mucosa cells; 1000 µg/mL, 30 min): 0.33±0.01 %; Normal (%) (oral mucosa cells; 1000 µg/mL, 30 min): 91.56±0.44 %; toxicity in genotoxicity testing (oral mucosa cells; all concentrations (50-1000 µg/mL)): low toxicity; hemolysis at 1 h ([1]; 0.5% red blood cell suspension (blood types A, B and O), all concentrations tested (50-1000 µg/mL), read-out: rate of hemolysis (class)): 0 to 40%; hemolysis at 1 h, 1000 µg/mL ([1]; type A blood): < 5%; hemolysis at 1 h, 1000 µg/mL ([1]; type B blood): < 17%; hemolysis at 1 h, 1000 µg/mL ([1]; type O blood): < 9%

Q: With OO [Positive control, hydrogen peroxide, reference compound] as the molecule, how does the “Binucleation (%)” value (oral mucosa cells; 0.0005% hydrogen peroxide) read?
A: The value was 4.33±0.38%.

Q: And the “Karyolysis (%)” value (oral mucosa cells; 0.0005% hydrogen peroxide)?
A: Its value is 5.44±0.72%.

Q: And the “Karyorrhexis (%)” value (oral mucosa cells; 0.0005% hydrogen peroxide)?
A: Its value is 5.11±0.67%.

Q: What about the “Macronucleus (%)” value (oral mucosa cells; 0.0005% hydrogen peroxide) of the same molecule?
A: The value was 4.55±0.80%.

Q: What about the “Micronucleus (%)” value (oral mucosa cells; 0.0005% hydrogen peroxide) of the same molecule?
A: Its value is 4.00±0.88%.

Q: What about the “Normal (%)” value (oral mucosa cells; 0.0005% hydrogen peroxide) of the same molecule?
A: Its value is 76.56±3.08%.

Q: And the “Normal (%)” value (oral mucosa cells; 0.0005% hydrogen peroxide, listed as positive control)?
A: Its value is under 80%.
